PMC10065799, “High-throughput profiling of sequence recognition by tyrosine kinases and SH2 domains using bacterial peptide display” (eLife, 2023)

Legend:
Assay in all cases: pTyr-Var library bacterial peptide display kinase screen (enrichment scores)
[1] = system: EPHB1 kinase domain; type: biochemical, human; details: for Screen: sheet EPHB1, effect of the variant peptide relative to its reference peptide in the pTyr-Var library screen (enrichment scores); for Screen (variant relative to reference peptide, measured in the pTyr-Var library screen): sheet "EPHB1", variant seq vs reference seq, bacterial peptide display enrichment
[2] = system: EPHB2 kinase domain; type: biochemical, human; details: sheet EPHB2; effect of variant peptide relative to its reference peptide in the pTyr-Var library screen (enrichment scores);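 note: log2 fold change in enrichment of variant over reference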
[3] = molecular target: c-Src kinase domain (Homo sapiens, UniProt P12931); type: biochemical; details: sheet "Src";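 note: log2 fold change in enrichment of variant over reference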
[4] = system: Fer kinase domain; type: biochemical, mouse; details: sheet "Fer";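 note: log2 fold change in enrichment of variant over reference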
[5] = molecular target: T1, c-Abl kinase domain (Mus musculus, UniProt P00520); type: biochemical;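 for screen: log2 fold change in enrichment of variant over reference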
T1 sequence (P00520 242-493 limits assumed): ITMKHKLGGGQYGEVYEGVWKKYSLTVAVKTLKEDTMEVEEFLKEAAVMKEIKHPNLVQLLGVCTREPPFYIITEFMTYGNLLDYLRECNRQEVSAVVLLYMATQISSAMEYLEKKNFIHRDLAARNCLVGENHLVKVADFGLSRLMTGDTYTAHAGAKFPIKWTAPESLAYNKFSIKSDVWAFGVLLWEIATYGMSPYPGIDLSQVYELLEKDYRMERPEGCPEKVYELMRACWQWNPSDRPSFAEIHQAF

[6] = variant peptide versus its reference peptide in the pTyr-Var library screen
[7] = value of the variant peptide against its reference peptide in the pTyr-Var library screen with Fer
[8] = fig5-data2, sheet "Abl", Screen for the variant/reference peptide pair, pTyr-Var library
[9] = effect of the variant peptide relative to its reference peptide in the pTyr-Var library screen
[10] = sheet "Abl", effect of variant peptide relative to its reference peptide in pTyr-Var library screen (enrichment)
[11] = variant peptide relative to its reference peptide, pTyr-Var library screen enrichment

Q: How did the Screen [1] turn out when KSFDMYSGDVM [FAM3D_Y122_A118S] was run?
A: Its Screen is 0.345.

Q: With HEEDNYIEMIP [NWD2_Y566_L569M] as the sequence, how does the Screen [1] read?
A: The Screen was -0.841.

Q: And the Screen [2]?
A: The Screen was -0.6493.

Q: With LWQSIYNLDAE [TNNT2_Y251_E254D] as the sequence, how does the Screen [3, 6] read?
A: The Screen was 0.02036.

Q: For TKDTFYQQPMF [GBA_Y451_K452Q], which Screen [4, 7] is on record?
A: Its Screen is 2.731.

Q: And the Screen [2]?
A: Its Screen is 1.843.

Q: LDLPGYCLLRE [CCDC116_Y291_P293L] was tested. Which Screen [5, 8] did it give?
A: Its Screen is -2.162.

Q: What about the Screen [1] of the same sequence?
A: Its Screen is 0.4195.

Q: How did the Screen [4, 7] turn out when LLEGKYEWQEV [CDKN1B_Y74_P69L] was run?
A: Its Screen is 1.551.

Q: How did the Screen [3, 9] turn out when SKLTIYDGRPS [MTM1_Y277_A279G] was run?
A: The Screen was -1.75.

Q: IVRSLYEDQED [VHL_Y185_L188Q] was tested. Which Screen [5, 10] did it give?
A: The Screen was 2.774.

Q: How did the Screen [2] turn out when PLCPDYQEPSR [DDR2_Y481_R478C] was run?
A: The Screen was 1.681.

Q: PSSRDYKDNIK [PIGN_Y227_H229D] was tested. Which Screen [5, 8] did it give?
A: Its Screen is -1.292.

Q: Which results are given for SEHLIYLEFKS [RASGRP1_Y215_T214I]?
A: Screen [5, 8]: 0.2716; Screen [3, 6]: 0.01051; Screen [1]: 0.7598

Q: Which Screen [4, 7] does the source give for EALDFYGEVRI [PTEN_Y155_T160I] here?
A: Its Screen is 1.122.

Q: How did the Screen [5, 10] turn out when HGEAVYSRDCV [XPC_Y676_R671H] was run?
A: Its Screen is 1.031.

Q: And the Screen [3, 6]?
A: The Screen was 0.7041.

Q: For KTGDFYDLFGG [PTPN11_Y63_N58K_YF], which Screen [3, 6] is on record?
A: Its Screen is -0.7427.

Q: And the Screen [4, 11]?
A: The Screen was -1.345.

Q: With SLIDMYSEVLA [OPA1_Y268_D273A] as the sequence, how does the Screen [3, 6] read?
A: The Screen was 1.458.

Q: How did the Screen [3, 9] turn out when GQLIVYAPPEW [CNTN6_Y315_F314V] was run?
A: Its Screen is 1.101.

Q: What about the Screen [4, 7] of the same sequence?
A: The Screen was -1.619.

Q: And the Screen [2]?
A: Its Screen is -0.7681.

Q: With LITTLYISFLG [KCNQ1_Y267_G269S] as the sequence, how does the Screen [3, 9] read?
A: The Screen was -1.106.

Q: Which Screen [1] does the source give for QDEHGYISLCF [HSPB1_Y133_R136L] here?
A: The Screen was 1.02.

Q: Which results are given for PLSGEYFTLQI [TP53_Y327_D324S]?
A: Screen [5, 10]: -0.7361; Screen [3, 6]: -0.1322; Screen (variant relative to reference peptide, measured in the pTyr-Var library screen) [1]: 0.4408

Q: QKKPCYEIRWK [PDGFRB_Y562_R561C] was tested. Which Screen [5, 8] did it give?
A: The Screen was 0.01021.

Q: Which Screen [5, 10] does the source give for DPNQQYFIAMD [TBX15_Y159_H156N_YF] here?
A: Its Screen is -1.397.

Q: With ADGLEYPRTGL [MMUT_Y287_S288P] as the sequence, how does the Screen [2] read?
A: The Screen was -1.339.

Q: Which Screen [5, 8] does the source give for NVSILYTASQA [CTNNA1_Y222_P219S] here?
A: The Screen was -0.9911.

Q: Which Screen [3, 9] does the source give for RKETFYILSCR [GUCY2C_Y681_T682I] here?
A: The Screen was -2.18.

Q: For SFSGEYGSGGG [ZG16_Y30_G32S_YF], which Screen [5, 10] is on record?
A: The Screen was -2.078.

Q: Which results are given for LFMGDYVGRGF [PPP2CA_Y86_D88G_YF]?
A: Screen [3, 6]: 1.98; Screen [1]: 1.681

Q: Which results are given for QDLLLYQTHSE [PKHD1_Y255_F253L]?
A: Screen [3, 6]: 0.9307; Screen [4, 7]: 1.348; Screen [2]: 1.452

Q: RGVVMYTSKDR [ZG16B_Y136_M133V] was tested. Which Screen [5, 10] did it give?
A: Its Screen is -3.766.

Q: Which Screen [5, 10] does the source give for KACNPYKPPGP [TTN_Y25826_T25821K] here?
A: The Screen was -2.971.

Q: For AGARMYGVLPW [PLP1_Y207_D203G], which Screen [3, 6] is on record?
A: The Screen was -0.8816.

Q: What about the Screen [2] of the same sequence?
A: Its Screen is -1.831.

Q: How did the Screen [5, 8] turn out when KGEDFYFVTCH [FHL1_Y149_C150Y_YF] was run?
A: The Screen was -2.007.

Q: How did the Screen [5, 10] turn out when DTQNSYWCATS [TSC1_Y304_G305W] was run?
A: The Screen was 1.58.

Q: How did the Screen [2] turn out when LVRAFYCERRW [CARD11_Y970_R975W] was run?
A: Its Screen is -0.93.

Q: How did the Screen [2] turn out when PHMQTYEVDHN [SDHB_Y61_L65H] was run?
A: The Screen was 0.7041.

Q: For FLLRVYSIFSK [SGCE_Y38_T36R], which Screen [3, 6] is on record?
A: Its Screen is -1.068.

Q: DWWQEYVLNES [TGM1_Y267_R264W] was tested. Which Screen [3, 6] did it give?
A: Its Screen is 1.594.

Q: How did the Screen [3, 6] turn out when PADQAYSWFQH [NDST1_Y711_R709Q_YF] was run?
A: Its Screen is 1.532.

Q: What about the Screen [4, 7] of the same sequence?
A: The Screen was 0.5054.

Q: Which Screen [3, 6] does the source give for PRDGEYFTLQI [TP53_Y327_L323R] here?
A: The Screen was -0.0193.

Q: How did the Screen [5, 8] turn out when TKLKDYFIFNK [CCDC42_Y149_A144T_YF] was run?
A: The Screen was -0.5052.

Q: How did the Screen [5, 8] turn out when HCFAAYFQQGD [GPI_Y351_R347C] was run?
A: Its Screen is 0.663.

Q: For EFRFIYMAVQH [PTPN11_Y515_Q510E_YF], which Screen [3, 6] is on record?
A: Its Screen is 0.0506.

Q: How did the Screen [3, 9] turn out when VQEDIYDEFVV [ALDH2_Y332_E337V] was run?
A: Its Screen is 0.8946.

Q: What about the Screen [4, 7] of the same sequence?
A: Its Screen is 3.107.

Q: NTGGFYDLFGG [PTPN11_Y63_D61G_YF] was tested. Which Screen [3, 6] did it give?
A: The Screen was -0.08944.

Q: And the Screen [4, 7]?
A: Its Screen is 1.072.

Q: Which results are given for LHQSTYQCFDV [SLC7A14_Y693_R695C_YF]?
A: Screen [3, 6]: 0.927; Screen [4, 11]: 1.307; Screen (variant relative to reference peptide, measured in the pTyr-Var library screen) [1]: 1.159

Q: With KAEQLYIGVTV [EFHC2_Y509_E507Q] as the sequence, how does the Screen [3, 9] read?
A: The Screen was 0.06421.

Q: What about the Screen [4, 7] of the same sequence?
A: The Screen was 0.3011.

Q: How did the Screen [2] turn out when FCRHNYGVGES [HLA-DRB1_Y112_V115G_YF] was run?
A: Its Screen is -2.304.

Q: ACQSLYGGFVE [MVD_Y164_R161Q] was tested. Which Screen [3, 9] did it give?
A: Its Screen is 0.09261.

Q: What about the Screen [2] of the same sequence?
A: Its Screen is 1.328.

Q: For PVADPYDQSFE [P38A Y323], which “Enrichment score (mean)” value ([5]; pTyr-Var library bacterial peptide display screen with c-Abl, 11-residue peptides (SITE_+/-5_AA) of annotated Abl substrate sites, sheet "Abl substrates", mean) is on record?
A: The value was 2.375.

Q: How did the Screen [4, 7] turn out when EELLRYAIVTP [POC5_Y37_H36R] was run?
A: Its Screen is -3.509.

Q: What about the Screen [1] of the same sequence?
A: The Screen was -2.287.

Q: EWLRRYLKNGK [HLA-C_Y195_E197K] was tested. Which Screen [5, 8] did it give?
A: The Screen was -0.1377.
